Measurements as given in PubChem BioAssay (NCI).
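How tested: cells in 96-well plates exposed to compound for 48 hours at five concentrations. TGI: total growth inhibition.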

What was measured:
Assay in all cases: NCI anticancer screen, dose series, 48 h
[1] = test system: OVCAR-5 ovarian
[2] = test system: IGROV1 ovarian
[3] = test system: CAKI-1 renal
[4] = test system: DU-145 prostate
[5] = test system: CCRF-CEM leukemia
[6] = test system: NCI-H522 lung
[7] = test system: MDA-MB-231 breast
[8] = test system: NCI-H23 lung
[9] = test system: UACC-62 melanoma
[10] = test system: SK-MEL-2 melanoma
[11] = test system: COLO 205 colon
[12] = test system: UACC-257 melanoma

| Structure (SMILES) | TGI [1] [µM] | TGI [2] [µM] | TGI [3] [µM] | TGI [4] [µM] | TGI [5] [µM] | TGI [6] [µM] | TGI [7] [µM] | TGI [8] [µM] | TGI [9] [µM] | TGI [10] [µM] | TGI [11] [µM] | TGI [12] [µM] |
| --- | --- | --- | --- | --- | --- | --- | --- | --- | --- | --- | --- | --- |
| Cc1cc(C)nc(NS(=O)(=O)c2ccc(Nc3c4ccccc4nc4c(C(=O)NCCO)cccc34)cc2)n1 | 91.7 | > 100 | 52.7 | > 100 | 50.9 | 30 | 27.4 | > 100 | > 100 | 35.7 | 31.3 | – |
| CN(C)c1nc(=NCc2ccccn2)ss1 | > 10 | > 10 | > 10 | > 10 | > 10 | – | > 10 | > 10 | > 10 | – | > 10 | > 10 |
| CCOC(=O)c1csc(NC(=O)CCCC#N)n1 | > 100 | – | > 100 | > 100 | > 100 | – | > 100 | > 100 | > 100 | > 100 | > 100 | > 100 |
| COc1cc2c(cc1OCCCOc1cc3c(cc1OC)C(=O)N1CCC[C@H]1CN3)N=C[C@@H]1CCCN1C2=O | 1.32 | 0.451 | 1.88 | > 37.7 | > 100 | – | 16.6 | 0.709 | – | 0.365 | – | 0.516 |
| COc1cc(OC)c(C2c3cc4c(cc3OC(N3CCOCC3)C2C)OCO4)c(OC)c1 (configuration not stated) | > 100 | > 100 | – | > 100 | > 100 | > 100 | – | > 100 | > 100 | > 100 | > 100 | > 100 |
| COC(=O)c1cc(C(=O)OC)cc(-c2ccc3c(c2)-c2nc4c(c(-c5ccc(OC)cc5)c2CC3)CCc2ccc(-c3cc(C(=O)OC)cc(C(=O)OC)c3)cc2-4)c1 | 31.8 | – | > 100 | > 100 | – | > 100 | > 100 | > 100 | > 100 | > 100 | > 100 | > 100 |
| CCC1C(=O)OCc2c1cc1n(c2=O)CCC12OCCO2 (configuration not stated) | > 100 | > 100 | > 100 | – | > 100 | > 100 | – | > 100 | > 100 | > 100 | > 100 | > 100 |
| CCNC(=S)N/N=C/c1ccccn1 | > 100 | > 100 | – | 58.5 | > 100 | > 100 | > 100 | 84.8 | 26.1 | > 100 | > 100 | > 100 |
| C=C1CC2C(=O)N(c3ccccc3)C(=O)C2CC1n1[nH]c(=O)n(Cc2ccccc2)c1=O (configuration not stated) | > 100 | > 100 | > 100 | – | > 100 | > 100 | – | > 100 | > 100 | > 100 | > 100 | > 100 |
| CC1(C)[C@@H]2C[C@H]1c1cnc(-c3ccccn3)cc1[C@H]2C(O)[C@@H]1c2cc(-c3ccccn3)ncc2[C@H]2C[C@@H]1C2(C)C (some centres not stated) | 18 | 6.98 | 2.43 | 3.47 | – | 3.06 | 3.89 | 2.79 | 7.66 | 13 | 4.06 | 26 |
| NC(=S)N=Nc1c(O)cc(Nc2ccc(Cl)cc2Cl)c2ccccc12 | > 100 | 88 | 38.6 | > 100 | – | – | 27.6 | 97.7 | 29.4 | > 100 | > 100 | > 100 |
